Results from the NIST ThermoML archive (doi:10.1021/je500513b).

Assay: mn = molality of the nth substance listed, in mol/kg
Conditions: for surface tension liquid-gas: Pendant drop shape; for electrical conductivity: 100 kPa, Liquid, Mettler Toledo inLab 710

CCCCCCCCCCCCCC[N+](C)(C)CCCCCC[N+](C)(C)CCCCCCCCCCCCCC.[Br-].[Br-] + O
Conditions | electrical conductivity, 298.15 K [S/m] | electrical conductivity, 303.15 K [S/m] | electrical conductivity, 308.15 K [S/m] | electrical conductivity, 313.15 K [S/m] | electrical conductivity, 318.15 K [S/m] | electrical conductivity, 323.15 K [S/m] | surface tension liquid-gas, 298.15 K [mN/m]
m1 = 1e-05 | – | – | – | – | – | – | 61.8
m1 = 2e-05 | – | – | – | – | – | – | 56.01
m1 = 3e-05 | – | – | – | – | – | – | 52.48
m1 = 4e-05 | – | – | – | – | – | – | 50.87
m1 = 5e-05 | – | – | – | – | – | – | 49.03
m1 = 6e-05 | – | – | – | – | – | – | 47.1
m1 = 7e-05 | – | – | – | – | – | – | 45.98
m1 = 8e-05 | – | – | – | – | – | – | 43.05
m1 = 0.0001 | – | – | – | – | – | – | 42.1
m1 = 0.000111 | 0.00247 | 0.00278 | 0.00326 | 0.00342 | 0.00369 | 0.00384 | –
m1 = 0.000115 | 0.00256 | – | – | – | – | – | –
m1 = 0.000118 | – | 0.00293 | 0.00339 | 0.00353 | 0.00387 | 0.004 | –
m1 = 0.00012 | 0.00265 | – | – | – | – | – | 41.5
m1 = 0.000125 | 0.00273 | 0.00311 | 0.00353 | 0.00364 | 0.00407 | 0.00426 | –
m1 = 0.00013 | 0.0028 | – | – | – | – | – | –
m1 = 0.000133 | – | 0.00327 | 0.00369 | 0.00386 | 0.00431 | 0.00452 | –
m1 = 0.000136 | 0.00289 | – | – | – | – | – | –
m1 = 0.00014 | – | – | – | – | – | – | 40.55
m1 = 0.000143 | 0.003 | 0.00347 | 0.00386 | 0.00411 | 0.00454 | 0.00482 | –
m1 = 0.00015 | 0.00312 | 0.00361 | 0.004 | 0.00429 | 0.00478 | 0.00504 | –
m1 = 0.000158 | 0.00326 | 0.00375 | 0.00418 | 0.00449 | 0.00503 | 0.00526 | –
m1 = 0.000167 | 0.00338 | 0.00391 | 0.00438 | 0.00467 | 0.00529 | 0.00554 | –
m1 = 0.00017 | – | – | – | – | – | – | 39.84
m1 = 0.000176 | 0.00352 | 0.00407 | 0.00458 | 0.00494 | 0.00559 | 0.00586 | –
m1 = 0.000188 | 0.00365 | 0.00424 | 0.00478 | 0.00523 | 0.00588 | 0.00618 | –
m1 = 0.000197 | – | 0.00435 | 0.00493 | 0.00541 | 0.00613 | 0.00647 | –
m1 = 0.0002 | 0.0038 | – | – | – | – | – | 39.13
m1 = 0.000207 | – | 0.0045 | 0.00512 | 0.00562 | 0.00638 | 0.00676 | –
m1 = 0.000214 | 0.00396 | – | – | – | – | – | –
m1 = 0.000218 | – | 0.00464 | 0.00529 | 0.00582 | 0.00665 | 0.00702 | –
m1 = 0.000231 | 0.00413 | 0.00479 | 0.00548 | 0.00602 | 0.00694 | 0.00736 | –
m1 = 0.00024 | 0.00423 | 0.00491 | 0.0056 | 0.00617 | 0.00714 | 0.0076 | –
m1 = 0.00025 | 0.00434 | 0.00502 | 0.00573 | 0.00633 | 0.00734 | 0.00784 | –
m1 = 0.000261 | 0.00445 | 0.00513 | 0.00587 | 0.00647 | 0.00755 | 0.00808 | –
m1 = 0.000273 | 0.00456 | 0.00524 | 0.00604 | 0.00663 | 0.00777 | 0.00832 | –
m1 = 0.000286 | 0.00469 | 0.00539 | 0.00621 | 0.00681 | 0.008 | 0.00856 | –
m1 = 0.0003 | 0.00481 | 0.00556 | 0.00639 | 0.00704 | 0.00822 | 0.0088 | 38.57
m1 = 0.0004 | – | – | – | – | – | – | 38.4

O [water] + CCCCCCCCCCCCCC[N+](C)(C)CCCCCC[N+](C)(C)CCCCCCCCCCCCCC.[Br-].[Br-]
Conditions | surface tension liquid-gas [mN/m]
298.15 K, m2 = 0 | 71.98

O [water] + CCCCCCCCCCCC[N+](C)(C)CCCCCC[N+](C)(C)CCCCCCCCCCCC.[Br-].[Br-]
Conditions | surface tension liquid-gas [mN/m]
298.15 K, m2 = 0 | 71.98
